US20030100580A1, “Urotensin-II receptor antagonists” (priority 2002, published 2003)

Key:
[1] = molecular target: T1, cloned human and rat GPR-14 (UniProt Q9UKP6); assay: Radioligand binding ([125I] h-U-II) to HEK-293 cell membranes containing GPR-14; conditions: HEK-293 membranes, 200 pM [125I] h-U-II; human or rat receptor not specified
T1 sequence (Q9UKP6 1-389): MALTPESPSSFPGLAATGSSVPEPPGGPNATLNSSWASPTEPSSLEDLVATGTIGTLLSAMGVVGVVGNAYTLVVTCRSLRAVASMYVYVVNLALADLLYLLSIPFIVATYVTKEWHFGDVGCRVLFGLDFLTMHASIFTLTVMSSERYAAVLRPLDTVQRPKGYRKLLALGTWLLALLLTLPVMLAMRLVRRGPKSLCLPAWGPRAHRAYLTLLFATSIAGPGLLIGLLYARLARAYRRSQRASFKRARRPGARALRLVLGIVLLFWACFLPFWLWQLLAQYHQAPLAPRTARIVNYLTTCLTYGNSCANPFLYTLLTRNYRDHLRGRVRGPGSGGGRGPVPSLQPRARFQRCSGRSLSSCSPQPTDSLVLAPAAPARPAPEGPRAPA
Method: HEK-293 cell membranes containing stable cloned human and rat GPR-14 (20 ug/assay) were incubated with 200 pM [125I] h-U-II (200 Ci/mmol^−1 in the presence of increasing concentrations of test compounds in DMSO (0.1 nM to 10 uM), in a final incubation volume of 200 ul (20 mM Tris-HCl, 5 mM MgCl2). Incubation was done for 30 minutes at room temperature followed by filtration GF/B filters with Brandel cell harvester. ^125I labeled U-U binding was quantitated by gamma counting. Nonspecific binding was defined by ^1251I U-II binding in the presence of 100 nM of unlabeled human U-II. Analysis of the data was performed by nonlinear least square fitting.

rat-isolated aorta = conditions: cited from earlier work

COc1ccc(S(=O)(=O)Nc2ccc(Cl)c(OCCN(C)C)c2)cc1OC [Example 1, N-[4-Chloro-3-(2-dimethylamino-ethoxy)phenyl]-3,4-dimethoxy-benzenesulfonamide]
melting point: 228 to 229 °C

CN(C)CCOc1cc(NS(=O)(=O)c2ccc(Br)cc2)ccc1I [Example 8, 4-Bromo-N-[4-iodo-3-(2-dimethylamino-ethoxy)-phenyl]-benzenesulfonamide]
Ki [1]: 1.3 µM

CC(C)[C@H](NC(=O)[C@@H]1CSSC[C@H](NC(=O)[C@H](CC(=O)O)NC(=O)[C@@H]2CCCN2C(=O)[C@@H](NC(=O)[C@@H](N)CCC(=O)O)[C@@H](C)O)C(=O)N[C@@H](Cc2ccccc2)C(=O)N[C@@H](Cc2c[nH]c3ccccc23)C(=O)N[C@@H](CCCCN)C(=O)N[C@@H](Cc2ccc(O)cc2)C(=O)N1)C(=O)O [Human Urotensin-II]
contractile activity (rat-isolated aorta): most potent contractile agonist identified to date
